# Laboratory results: ChEMBL document CHEMBL5584204, “Discovery of a novel tetrahydroimidazo[1,2-a]pyridine-5-carboxylic acid derivative as a potent and selective heparanase-1 inhibitor utilizing an improved synthetic approach” (Bioorg Med Chem Lett, 2024)
# What was measured:
# [1] = Inhibition of GBA (unknown origin); design: species or system Homo sapiens
# Heparanase = molecular target: T1, Heparanase (Homo sapiens, UniProt Q9Y251); test: Inhibition of HPSE1 (unknown origin)
# T1 sequence (Q9Y251 whole entry): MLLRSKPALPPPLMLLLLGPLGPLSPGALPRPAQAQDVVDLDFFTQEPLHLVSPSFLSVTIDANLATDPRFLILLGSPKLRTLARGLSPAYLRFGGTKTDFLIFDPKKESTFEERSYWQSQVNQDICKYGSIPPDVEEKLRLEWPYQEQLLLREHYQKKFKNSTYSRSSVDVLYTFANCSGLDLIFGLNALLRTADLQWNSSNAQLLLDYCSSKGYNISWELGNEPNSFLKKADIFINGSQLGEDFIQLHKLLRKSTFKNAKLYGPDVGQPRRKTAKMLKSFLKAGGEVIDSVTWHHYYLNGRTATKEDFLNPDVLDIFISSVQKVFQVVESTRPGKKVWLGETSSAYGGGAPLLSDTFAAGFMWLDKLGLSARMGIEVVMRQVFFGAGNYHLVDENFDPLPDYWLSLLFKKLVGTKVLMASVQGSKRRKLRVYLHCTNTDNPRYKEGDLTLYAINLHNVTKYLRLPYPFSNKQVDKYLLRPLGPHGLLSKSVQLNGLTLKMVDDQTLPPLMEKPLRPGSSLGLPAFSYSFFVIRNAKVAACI
# Beta-glucuronidase = molecular target: T2, Beta-glucuronidase (Homo sapiens, UniProt P08236); test: Inhibition of GUSbeta (unknown origin)
# T2 sequence (P08236 whole entry): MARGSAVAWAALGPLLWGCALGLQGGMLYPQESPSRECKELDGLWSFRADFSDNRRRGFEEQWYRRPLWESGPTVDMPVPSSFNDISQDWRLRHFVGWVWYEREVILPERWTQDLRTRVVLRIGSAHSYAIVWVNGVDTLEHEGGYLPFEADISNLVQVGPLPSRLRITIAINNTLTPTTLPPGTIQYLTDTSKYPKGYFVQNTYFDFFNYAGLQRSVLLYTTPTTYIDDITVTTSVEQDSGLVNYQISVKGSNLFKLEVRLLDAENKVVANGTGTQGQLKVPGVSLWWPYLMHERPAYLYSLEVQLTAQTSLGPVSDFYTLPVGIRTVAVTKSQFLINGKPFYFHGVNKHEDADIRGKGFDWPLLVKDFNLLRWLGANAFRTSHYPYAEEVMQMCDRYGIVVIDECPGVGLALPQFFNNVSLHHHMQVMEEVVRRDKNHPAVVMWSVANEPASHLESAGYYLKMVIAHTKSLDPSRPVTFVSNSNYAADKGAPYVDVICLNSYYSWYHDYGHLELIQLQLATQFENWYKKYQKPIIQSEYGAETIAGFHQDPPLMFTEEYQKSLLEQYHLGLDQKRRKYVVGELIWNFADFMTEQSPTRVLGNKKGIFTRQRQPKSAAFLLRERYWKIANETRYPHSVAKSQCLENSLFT
IC50 [1],IC50 (Heparanase),IC50 (Beta-glucuronidase),SMILES
0.439 µM,–,–,CO[C@H]1[C@H](O)[C@@H](O)c2nc(CCc3cccc(Oc4ccccc4)c3)cn2[C@@H]1C(=O)O
38.6 µM,0.621 µM,41.8 µM,CC(C)O[C@H]1[C@H](O)[C@@H](O)c2nc(CCc3cccc(Oc4ccccc4)c3)cn2[C@@H]1C(=O)O
1.25 µM,0.057 µM,7.21 µM,O=C(O)[C@@H]1[C@@H](OCCc2ccccc2)[C@H](O)[C@@H](O)c2nc(CCc3cccc(Oc4ccccc4)c3)cn21
